The target of one test is BRD4-BD1 (Homo sapiens (Human), UniProt O60885). Nature of the test: BRD4 AlphaScreen Assay (Example A2), BRD4-BD1. The following applies: read-out: BRD4 BD-1 enzyme IC50. It is filed as binding. How it is done:
(§1) BRD4-BD1 and BRD4-BD2 assays were conducted in white 384-well polystyrene plate in a final volume of 40 μL for BD1 and 60 μL for BD2. Inhibitors were first serially diluted in DMSO and added to the plate wells before the addition of other reaction components. […] The assays were carried out at room temperature in the assay buffer (50 mM Tris-HCl, pH 7.5, 0.01% Tween-20, 0.01% BSA, 5 mM DTT), containing 50 nM Biotin-labeled tetra-acetylated histone H4 peptide (H4Ac4) and BRD4-BD1 or BRD4-BD2 protein at concentration less than 1 nM. […] After plate sealing, the plate was incubated in the dark at room temperature for 75 min. before reading on a PHERAstar FS plate reader (BMG Labtech). IC50 determination was performed by fitting the curve of percent control activity versus the log of the inhibitor concentration using the GraphPad Prism 5.0 software.
Background: Bead proximity is the source of the signal in Alpha formats.

Another test deals with BRD4-BD2 (Homo sapiens (Human), UniProt O60885). Nature of the test: BRD4 AlphaScreen Assay (Example A2), BRD4-BD2. It is filed as binding. The following applies: read-out: BRD4 BD-2 enzyme IC50. How it is done: as §1
Setting [1] is: Assay A2, AlphaScreen, BRD4-BD1.
The mark [2] stands for this setting: Assay A2, AlphaScreen, BRD4-BD2.

Like-named read-outs stand apart in the source and are kept apart here.

Turning to `Cc1noc(C)c1-c1cc(Br)c2[nH]c(=O)n3c2c1OCC3c1ccccn1` (single isomer, unassigned) [Example 267B, 9-bromo-7-(3,5-dimethylisoxazol-4-yl)-4-pyridin-2-yl-4,5-dihydroimidazo[1,5,4-de][1,4]benzoxazin-2(1H)-one], the IC50 at BRD4-BD1 (setting [1]) and at BRD4-BD2 (setting [2]) was below 100 nM in each case.

As to `Cc1noc(C)c1-c1ccc2nc(C3CCN(C(=O)OC(C)(C)C)C3)n3c2c1OC[C@@H]3c1ccccn1` (single isomer, unassigned; diastereoisomer 1) [Example 101A], the concentration for half-maximal inhibition (IC50) on BRD4-BD1 (setting [1]) and on BRD4-BD2 (setting [2]) was below 100 nM throughout.

`Cc1noc(C)c1-c1ccc2nc(C3CCN(C(=O)OC(C)(C)C)C3)n3c2c1OC[C@@H]3c1ccccn1` (single isomer, unassigned; diastereoisomer 2) [Example 101B]: the half-maximal inhibitory concentration (IC50) at BRD4-BD1 (setting [1]) and on BRD4-BD2 (setting [2]) was below 100 nM each time.

Take `Cc1noc(C)c1-c1ccc2nc(C3CCNC3)n3c2c1OC[C@@H]3c1ccccn1` (single isomer, unassigned; diastereomer 1) [Example 106A]: the IC50 at BRD4-BD1 (setting [1]) and on BRD4-BD2 (setting [2]) was below 100 nM each time.

As for `CC(=O)N1CCC(c2nc3ccc(-c4c(C)noc4C)c4c3n2[C@@H](c2ccccn2)CO4)C1` (single isomer, unassigned; diastereomer 1) [Example 113A], the 50% inhibitory concentration (IC50) on BRD4-BD1 (setting [1]) and on BRD4-BD2 (setting [2]) was below 100 nM each time.

`Cc1noc(C)c1-c1ccc2nc(C3CCN(C(=O)C4CC4)C3)n3c2c1OC[C@@H]3c1ccccn1` (single isomer, unassigned; diastereomer 1) [Example 114A]: the IC50 on BRD4-BD1 (setting [1]) and on BRD4-BD2 (setting [2]) was below 100 nM in each case.

`Cc1noc(C)c1-c1ccc2nc(C3CCNC3)n3c2c1OC[C@@H]3c1ccccn1` (single isomer, unassigned; diastereomer 2) [Example 106B]: the IC50 at BRD4-BD1 (setting [1]) and at BRD4-BD2 (setting [2]) was below 100 nM throughout.

Regarding `CC(=O)N1CCC(c2nc3ccc(-c4c(C)noc4C)c4c3n2[C@@H](c2ccccn2)CO4)C1` (single isomer, unassigned; diastereomer 2) [Example 113B], the IC50 on BRD4-BD1 (setting [1]) and at BRD4-BD2 (setting [2]) was below 100 nM throughout.

As for `Cc1noc(C)c1-c1ccc2[nH]c(=O)n3c2c1OCC3c1cccc[n+]1[O-]` (centres unmarked) [Example 16, 7-(3,5-Dimethylisoxazol-4-yl)-4-(1-oxidopyridin-2-yl)-4,5-dihydroimidazo[1,5,4-de][1,4]benzoxazin-2(1H)-one], the IC50 at BRD4-BD1 (setting [1]) and at BRD4-BD2 (setting [2]) was below 100 nM each time.

In the case of `Cc1noc(C)c1-c1ccc2[nH]c(=O)n3c2c1OCC3c1ccc(F)cn1` (centres unmarked) [Example 19, 7-(3,5-Dimethylisoxazol-4-yl)-4-(5-fluoropyridin-2-yl)-4,5-dihydroimidazo[1,5,4-de][1,4]benzoxazin-2(1H)-one], the 50% inhibitory concentration (IC50) on BRD4-BD1 (setting [1]) and on BRD4-BD2 (setting [2]) was below 100 nM throughout.

On to `Cc1noc(C)c1-c1cc(C#N)c2[nH]c(=O)n3c2c1OCC3c1ccccc1` (centres unmarked) [Example 42, 7-(3,5-Dimethylisoxazol-4-yl)-2-oxo-4-phenyl-1,2,4,5-tetrahydroimidazo[1,5,4-de][1,4]benzoxazine-9-carbonitrile], for which the IC50 on BRD4-BD1 (setting [1]) and at BRD4-BD2 (setting [2]) was below 100 nM in each case.

On to `Cc1noc(C)c1-c1cc(-c2ccccc2)c2[nH]c(=O)n3c2c1OCC3c1ccccc1` (centres unmarked) [Example 43, 7-(3,5-Dimethylisoxazol-4-yl)-4,9-diphenyl-4,5-dihydroimidazo[1,5,4-de][1,4]benzoxazin-2(1H)-one], for which the half-inhibitory concentration (IC50) at BRD4-BD1 (setting [1]) and on BRD4-BD2 (setting [2]) was below 100 nM in each case.

On to `Cc1cnn(C)c1-c1ccc2[nH]c(=O)n3c2c1OCC3c1ccccn1` (centres unmarked) [Example 44, 7-(1,4-Dimethyl-1H-pyrazol-5-yl)-4-pyridin-2-yl-4,5-dihydroimidazo[1,5,4-de][1,4]benzoxazin-2(1H)-one], for which the half-inhibitory concentration (IC50) lay within 1000 to 10000 nM on BRD4-BD1 (setting [1]) and 100 to 1000 nM on BRD4-BD2 (setting [2]).

On to `Cc1noc(C)c1-c1cc(Br)c2[nH]c(=O)n3c2c1OCC3c1ccccc1` (centres unmarked) [Example 45, 9-Bromo-7-(3,5-Dimethylisoxazol-4-yl)-4-phenyl-4,5-dihydroimidazo[1,5,4-de][1,4]benzoxazin-2(1H)-one], for which the IC50 on BRD4-BD1 (setting [1]) and on BRD4-BD2 (setting [2]) was below 100 nM in each case.

For `Cc1noc(C)c1-c1cc(C)c2[nH]c(=O)n3c2c1OCC3c1ccccc1` (centres unmarked) [Example 46, 7-(3,5-Dimethylisoxazol-4-yl)-9-methyl-4-phenyl-4,5-dihydroimidazo[1,5,4-de][1,4]benzoxazin-2(1H)-one], the half-maximal inhibitory concentration (IC50) on BRD4-BD1 (setting [1]) and on BRD4-BD2 (setting [2]) was below 100 nM each time.

Turning to `Cc1noc(C)c1-c1cc(-c2cccnc2)c2[nH]c(=O)n3c2c1OCC3c1ccccc1` (centres unmarked) [Example 52, 7-(3,5-Dimethylisoxazol-4-yl)-4-phenyl-9-pyridin-3-yl-4,5-dihydroimidazo[1,5,4-de][1,4]benzoxazin-2(1H)-one], the half-maximal inhibitory concentration (IC50) on BRD4-BD1 (setting [1]) and at BRD4-BD2 (setting [2]) was below 100 nM in each case.

Turning to `Cc1noc(C)c1-c1ccc2[nH]c(=O)n3c2c1OCC3(C)c1ccccn1` (centres unmarked) [Example 69, 7-(3,5-Dimethylisoxazol-4-yl)-4-methyl-4-pyridin-2-yl-4,5-dihydroimidazo[1,5,4-de][1,4]benzoxazin-2(1H)-one], the 50% inhibitory concentration (IC50) at BRD4-BD1 (setting [1]) and on BRD4-BD2 (setting [2]) was below 100 nM in each case.

On to `CCC1(c2ccccn2)COc2c(-c3c(C)noc3C)ccc3[nH]c(=O)n1c23` (centres unmarked) [Example 70, 7-(3,5-Dimethylisoxazol-4-yl)-4-ethyl-4-pyridin-2-yl-4,5-dihydroimidazo[1,5,4-de][1,4]benzoxazin-2(1H)-one 2,2,2-trifluoroacetate], for which the half-maximal inhibitory concentration (IC50) at BRD4-BD1 and at BRD4-BD2 was below 100 nM each time.

Take `CNC(=O)C1(c2ccccn2)COc2c(-c3c(C)noc3C)ccc3[nH]c(=O)n1c23` (centres unmarked) [Example 71, 7-(3,5-Dimethylisoxazol-4-yl)-N-methyl-2-oxo-4-pyridin-2-yl-1,2,4,5-tetrahydroimidazo[1,5,4-de][1,4]benzoxazine-4-carboxamide 2,2,2-trifluoroacetate]: the concentration for half-maximal inhibition (IC50) at BRD4-BD1 (setting [1]) was 100 to 1000 nM; on BRD4-BD2 it was below 100 nM.

Turning to `Cc1noc(C)c1-c1ccc2[nH]c(=O)n3c2c1OCC3(CN)c1ccccn1` (centres unmarked) [Example 73, 4-(Aminomethyl)-7-(3,5-dimethylisoxazol-4-yl)-4-pyridin-2-yl-4,5-dihydroimidazo[1,5,4-de][1,4]benzoxazin-2(1H)-one bis(2,2,2-trifluoroacetate)], the IC50 at BRD4-BD1 (setting [1]) was 100 to 1000 nM; on BRD4-BD2 (setting [2]), below 100 nM.

As for `Cc1noc(C)c1-c1ccc2[nH]c(=O)n3c2c1OCC3(C(N)=O)c1ccccn1` (centres unmarked) [Example 74, 7-(3,5-Dimethylisoxazol-4-yl)-2-oxo-4-pyridin-2-yl-1,2,4,5-tetrahydroimidazo[1,5,4-de][1,4]benzoxazine-4-carboxamide 2,2,2-trifluoroacetate], the IC50 at BRD4-BD1 (setting [1]) was 100 to 1000 nM; on BRD4-BD2 (setting [2]), below 100 nM.

On to `Cc1noc(C)c1-c1ccc2[nH]c(=O)n3c2c1OC(C)C3c1ccccn1` (centres unmarked) [Example 75, 7-(3,5-dimethylisoxazol-4-yl)-5-methyl-4-pyridin-2-yl-4,5-dihydroimidazo[1,5,4-de][1,4]benzoxazin-2(1H)-one], for which the IC50 on BRD4-BD1 (setting [1]) and on BRD4-BD2 (setting [2]) was below 100 nM each time.

By IC50 is commonly meant the concentration needed to halve the response being measured.

(Values after patent US9624241B2 (Incyte Corporation, priority 2013, dated 2017).)
